Experimental data: US9409907B2, “Inhibitor compounds” (Cancer Research Technology Limited, priority 2012, dated 2016)

Each molecule was assayed against full length MPS1 (Homo sapiens (Human), UniProt P33981) (assay: Measurement of inhibition of MPS1 kinase (Caliper EZ reader mobility-shift enzyme assay)). Conditions: full length MPS1 12.5 nM or 3 nM, H236 peptide 5 μM, ATP 10 μM, 60 min at room temperature.
Assay type: biochemical
Procedure: Measurement of Inhibition of MPS1 Kinase
The reaction was carried out for 60 min at room temperature and stopped by the addition of buffer (10 μl) containing 20 mM EDTA, 0.05% (v/v) Brij-35, in 0.1M HEPES-buffered saline (Free acid, Sigma, UK). The plate was read on a Caliper EZ reader II (Caliper Life Sciences).
The % inhibition of the compounds is calculated relative to the means of selected control wells.

Chain of full length MPS1 (P33981 whole entry): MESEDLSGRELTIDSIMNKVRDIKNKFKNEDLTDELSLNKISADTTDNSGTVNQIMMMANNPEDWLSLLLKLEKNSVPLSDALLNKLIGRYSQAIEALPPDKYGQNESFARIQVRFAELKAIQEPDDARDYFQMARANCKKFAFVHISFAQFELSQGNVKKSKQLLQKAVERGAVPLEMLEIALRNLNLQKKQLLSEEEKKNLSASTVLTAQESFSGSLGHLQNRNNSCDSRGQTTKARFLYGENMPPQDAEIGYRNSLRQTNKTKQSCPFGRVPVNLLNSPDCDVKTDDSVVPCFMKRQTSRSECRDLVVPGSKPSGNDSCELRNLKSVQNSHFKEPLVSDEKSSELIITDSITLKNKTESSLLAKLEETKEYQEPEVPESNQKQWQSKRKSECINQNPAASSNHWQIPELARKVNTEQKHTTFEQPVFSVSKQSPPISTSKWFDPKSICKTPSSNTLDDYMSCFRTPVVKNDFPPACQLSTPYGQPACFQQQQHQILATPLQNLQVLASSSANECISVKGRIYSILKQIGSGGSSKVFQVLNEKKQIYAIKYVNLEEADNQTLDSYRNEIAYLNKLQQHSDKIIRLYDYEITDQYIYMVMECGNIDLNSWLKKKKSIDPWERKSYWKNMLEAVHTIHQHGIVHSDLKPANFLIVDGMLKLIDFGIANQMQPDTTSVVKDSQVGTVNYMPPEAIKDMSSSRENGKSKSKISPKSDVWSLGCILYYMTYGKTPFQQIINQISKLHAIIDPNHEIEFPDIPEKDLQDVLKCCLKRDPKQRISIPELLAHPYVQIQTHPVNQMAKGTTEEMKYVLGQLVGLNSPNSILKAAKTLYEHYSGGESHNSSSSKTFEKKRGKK

Row | Structure (SMILES) | IC50
1 | COc1cc(-c2cnc(C)n2C)ccc1Nc1cc2c(-c3cnn(C)c3)nccc2cn1 [Example 104, N-(4-(1,2-dimethyl-1H-imidazol-5-yl)-2-methoxyphenyl)-5-(1-methyl-1H-pyrazol-4-yl)-2,6-naphthyridin-3-amine] | 7 nM
2 | COc1cc(-c2cnn(C)c2)ccc1Nc1ncc2ccnc(NC3CCOC3)c2n1 (stereo not drawn) [Example 78, N2-(2-methoxy-4-(1-methyl-1H-pyrazol-4-yl)phenyl)-N8-(tetrahydrofuran-3-yl)pyrido[3,4-d]pyrimidine-2,8-diamine] | 8 nM
3 | COc1nc(-c2cnc(C)n2C)ccc1Nc1ncc2ccnc(NCC(C)(C)OC)c2n1 [Example 162, N^2-(6-(1,2-Dimethyl-1H-imidazol-5-yl)-2-methoxypyridin-3-yl)-N^8-(2-methoxy-2-methylpropyl)pyrido[3,4-d]pyrimidine-2,8-diamine] | 3 nM
4 | COc1cc(N2CCN(C)CC2)ccc1Nc1ncc2ccnc(NCC(C)(C)C)c2n1 [Example 173, N2-(2-methoxy-4-(4-methylpiperazin-1-yl)phenyl)-N8-neopentylpyrido[3,4-d]pyrimidine-2,8-diamine] | 4 nM
5 | COc1cc(-c2cnn(C)c2)ccc1Nc1ncc2ccnc(-c3cnn(CC(F)F)c3)c2n1 [Example 93, 8-(1-(2,2-difluoroethyl)-1H-pyrazol-4-yl)-N-(2-methoxy-4-(1-methyl-1H-pyrazol-4-yl)phenyl)pyrido[3,4-d]pyrimidin-2-amine] | 10 nM
6 | COc1cc(-c2cnn(C)c2)ccc1Nc1ncc2ccnc(N3CCC(CO)C3)c2n1 (stereo not drawn) [Example 133, (1-(2-(2-Methoxy-4-(1-methyl-1H-pyrazol-4-yl)phenylamino)pyrido[3,4-d]pyrimidin-8-yl)pyrrolidin-3-yl)methanol] | 3 nM
7 | COc1cc(-c2cnn(C)c2)ccc1Nc1ncc2ccnc(N3CCC(O)C3)c2n1 (stereo not drawn) [Example 80, 1-(2-(2-methoxy-4-(1-methyl-1H-pyrazol-4-yl)phenylamino)pyrido[3,4-d]pyrimidin-8-yl)pyrrolidin-3-ol] | 6 nM
8 | COc1cc(-c2cnn(C)c2)ccc1Nc1cc2c(-c3cnn(C)c3)cccc2cn1 [Example 16, N-(2-methoxy-4-(1-methyl-1H-pyrazol-4-yl)phenyl)-5-(1-methyl-1H-pyrazol-4-yl)isoquinolin-3-amine] | 71 nM
9 | Clc1ccc(Nc2ncc3ccnc(N4CCC5(COC5)C4)c3n2)c(Cl)c1 [Example 207] | 94 nM
10 | COc1cc(C(=O)N2CC(OC)C2)ccc1Nc1cc2c(-c3cnn(C4CCNCC4)c3)cccc2cn1 [Example 20, (3-Methoxy-4-((5-(1-(piperidin-4-yl)-1H-pyrazol-4-yl)isoquinolin-3-yl)amino)phenyl)(3-methoxyazetidin-1-yl)methanone] | 20 nM
11 | COc1cc(-c2cnn(C)c2)ccc1Nc1ncc2ccnc(N3CCN(C)CC3)c2n1 [Example 62, N-(2-methoxy-4-(1-methyl-1H-pyrazol-4-yl)phenyl)-8-(4-methylpiperazin-1-yl)pyrido[3,4-d]pyrimidin-2-amine] | 9 nM
12 | COc1cc(-c2nncn2C)ccc1Nc1ncc2c(C)cnc(NCC3(C)CCOC3)c2n1 (stereo not drawn) [Example 156, N^2-(2-methoxy-4-(4-methyl-4H-1,2,4-triazol-3-yl)phenyl)-5-methyl-N^8-((3-methyltetrahydrofuran-3-yl)methyl)pyrido[3,4-d]pyrimidine-2,8-diamine] | 5 nM
13 | COc1cc(-c2ncnn2C)ccc1Nc1ncc2cc(C)nc(NCC(C)(C)OC)c2n1 [Example 196] | 20 nM
14 | COc1cc(-c2cnn(C)c2)ccc1Nc1ncc2ccnc(N3CC(C#N)C3)c2n1 [Example 121, 1-(2-(2-methoxy-4-(1-methyl-1H-pyrazol-4-yl)phenylamino)pyrido[3,4-d]pyrimidin-8-yl)azetidine-3-carbonitrile] | 8 nM
15 | COc1cc(-c2cnn(C)c2)ccc1Nc1cc2c(NC3CCCCC3)nccc2cn1 [Example 105, N1-cyclohexyl-N7-(2-methoxy-4-(1-methyl-1H-pyrazol-4-yl)phenyl)-2,6-naphthyridine-1,7-diamine] | 56 nM
16 | COc1cc(N2CCN(S(C)(=O)=O)CC2)ccc1Nc1ncc2ccnc(NCC(C)(C)C)c2n1 [Example 176, N2-(2-methoxy-4-(4-(methylsulfonyl)piperazin-1-yl)phenyl)-N8-neopentylpyrido[3,4-d]pyrimidine-2,8-diamine] | 3 nM
17 | COc1cc(C#N)ccc1Nc1ncc2ccnc(N3CCC4(COC4)C3)c2n1 [Example 206] | 17 nM
18 | N#Cc1ccc(Nc2ncc3ccnc(N4CCC5(COC5)C4)c3n2)c(Cl)c1 [Example 205] | 87 nM
19 | COC1CN(C(=O)c2ccc(Nc3cc4c(-c5cnn(C)c5)cccc4cn3)c(Cl)c2)C1 [Example 22] | 100 nM
20 | COc1cc(-c2cnn(C)c2)ccc1Nc1ncc2ccnc(N(C)C)c2n1 [Example 108, N^2-(2-methoxy-4-(1-methyl-1H-pyrazol-4-yl)phenyl)-N^8,N^8-dimethylpyrido[3,4-d]pyrimidine-2,8-diamine] | 16 nM

Row | Structure (SMILES) | IC50
21 | COc1cc(-c2cnn(C)c2)ccc1Nc1ncc2ccnc(NCC(C)(F)F)c2n1 [Example 84, N8-(2,2-difluoropropyl)-N2-(2-methoxy-4-(1-methyl-1H-pyrazol-4-yl)phenyl)pyrido[3,4-d]pyrimidine-2,8-diamine] | 14 nM
22 | COc1cc(-c2cnn(C)c2)ccc1Nc1ncc2ccnc(N3CCC(F)(F)C3)c2n1 [Example 57, 8-(3,3-difluoropyrroldin-1-yl)-N-(2-methoxy-4-(1-methyl-1H-pyrazol-4-yl)phenyl)pyrido[3,4-d]pyrimidin-2-amine] | 12 nM
23 | COc1cc(C(=O)N2CC(OC)C2)ccc1Nc1ncc2ccnc(NCC(C)(C)OC)c2n1 [Example 193] | 4 nM
24 | Cn1cc(-c2ccc(Nc3cc4c(-c5cnn(C)c5)cccc4cn3)c(Cl)c2)cn1 [Example 23] | 225 nM
25 | COc1cc(-c2cnn(C)c2)ccc1Nc1ncc2cc(C)nc(NCC(C)(C)C)c2n1 [Example 51, N^2-(2-methoxy-4-(1-methyl-1H-pyrazol-4-yl)phenyl)-6-methyl-N8-neopentylpyrido[3,4-d]pyrimidine-2,8-diamine] | 29 nM
26 | COc1cc(-c2cnn(C)c2)ccc1Nc1ncc2ccnc(Cl)c2n1 [Example 94, 8-chloro-N-(2-methoxy-4-(1-methyl-1H-pyrazol-4-yl)phenyl)pyrido[3,4-d]pyrimidin-2-amine] | 164 nM
27 | COc1cc(C(=O)N2CC(OC)C2)ccc1Nc1cc2c(-c3cnn(C4CCN(C(=O)OC(C)(C)C)CC4)c3)cccc2cn1 [Example 3, tert-butyl 4-(4-(3-((2-methoxy-4-(3-methoxyazetidine-1-carbonyl)phenyl)-amino)isoquinolin-5-yl)-1H-pyrazol-1-yl)piperidine-1-carboxylate] | 125 nM
28 | COc1cc(-c2cnn(C)c2)ccc1Nc1ncc2ccnc(NCC(F)(F)F)c2n1 [Example 87, N2-(2-methoxy-4-(1-methyl-1H-pyrazol-4-yl)phenyl)-N8-(2,2,2-trifluoroethyl)pyrido[3,4-d]pyrimidine-2,8-diamine] | 75 nM
29 | COc1cc(-c2cnn(C)c2)ccc1Nc1ncc2ccnc(NC3(C)CCCCC3)c2n1 [Example 83, N2-(2-methoxy-4-(1-methyl-1H-pyrazol-4-yl)phenyl)-N8-(1-methylcyclohexyl)pyrido[3,4-d]pyrimidine-2,8-diamine] | 19 nM
30 | CCOc1cc(-c2nncn2C)ccc1Nc1ncc2cc(C)nc(NCC(C)(C)C)c2n1 [Example 182] | 3 nM
31 | COc1cc(-c2cnn(C)c2)ccc1Nc1ncc2ccnc(NCC3(F)COC3)c2n1 [Example 124, N^8-((3-fluorooexetan-3-yl)methyl)-N^2-(2-methoxy-4-(1-methyl-1H-pyrazol-4-yl)phenyl)pyrido[3,4-d]pyrimidine-2,8-diamine] | > 1000 nM
32 | CCOc1cc(-c2nncn2C)ccc1Nc1ncc2cc(C)nc(N3CC4(CCOC4)C3)c2n1 [Example 160, N-(2-ethoxy-4-(4-methyl-4H-1,2,4-triazol-3-yl)phenyl)-6-methyl-8-(6-oxa-2-azaspiro[3.4]octan-2-yl)pyrido[3,4-d]pyrimidin-2-amine] | 3 nM
33 | COCCNc1nccc2cnc(Nc3ccc(-c4cnn(C)c4)cc3OC)nc12 [Example 127, N^2-(2-Methoxy-4-(1-methyl-1H-pyrazol-4-yl)phenyl)-N^8-(2-methoxyethyl)pyrido[3,4-d]pyrimidine-2,8-diamine] | 8 nM
34 | Cc1nnc(-c2ccc(Nc3ncc4ccnc(N5CCC6(COC6)C5)c4n3)c(Cl)c2)o1 [Example 201] | 40 nM
35 | COc1cc(C(=O)N(C)C)ccc1Nc1ncc2ccnc(NCC(C)(C)OC)c2n1 [Example 194] | 11 nM
36 | COc1cc(-c2cnn(C)c2)ccc1Nc1ncc2ccnc(NCC3COC3)c2n1 [Example 72, N2-(2-methoxy-4-(1-methyl-1H-pyrazol-4-yl)phenyl)-N8-(oxetan-3-ylmethyl)pyrido[3,4-d]pyrimidine-2,8-diamine] | 5 nM
37 | COc1cc(-c2cnn(C)c2)ccc1Nc1ncc2ccnc(N3CC4(CCOCC4)C3)c2n1 [Example 119, N-(2-methoxy-4-(1-methyl-1H-pyrazol-4-yl)phenyl)-8-(7-oxa-2-azaspiro[3.5]nonan-2-yl)pyrido[3,4-d]pyrimidin-2-amine] | 3 nM
38 | CCn1cc(-c2ccc(Nc3ncc4ccnc(NCC(C)(C)OC)c4n3)c(OC)c2)cn1 [Example 152, N^2-(4-(1-ethyl-1H-pyrazol-4-yl)-2-methoxyphenyl)-N^8-(2-methoxy-2-methylpropyl)pyrido[3,4-d]pyrimidine-2,8-diamine] | 7 nM
39 | COc1cc(-c2nncn2C)ccc1Nc1ncc2cc(C)nc(NCC(C)(C)C)c2n1 [Example 179, N2-(2-methoxy-4-(4-methyl-4H-1,2,4-triazol-3-yl)phenyl)-6-methyl-N8-neopentylpyrido[3,4-d]pyrimidine-2,8-diamine] | 2 nM
